Reference: the supplement of paper PMC5908809

Columns and labels:
[1] = tested on: normal NK cells expanded with K562-aAPC; test: percent inhibition of viability; higher = more inhibition; conditions: 72 h, IL-2 2.5 ng/mL
Method: (§1)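 Drug sensitivity and resistance testing on K562-aAPC-expanded normal NK cells: 5 concentrations (10-fold steps over a 10,000-fold range), 72 h at 37 °C, viability by CellTiter-Glo normalised to DMSO and benzethonium chloride controls; DSS from the fitted curve.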

[2] = tested on: normal primary NK cells, pool 1 (3 donors) (IL-2 2.5 ng/mL); test: as above; conditions: 72 h
[3] = tested on: KAI3 (IL-2 2.5 ng/mL); test: as above; conditions: 72 h
[4] = tested on: normal primary NK cells, pool 2 (3 donors) (IL-2 2.5 ng/mL); test: as above; conditions: 72 h
[5] = tested on: NK-YS (IL-2 2.5 ng/mL); test: as above; conditions: 72 h
[6] = tested on: IMC-1 (IL-2 20 ng/mL); test: as above; conditions: 72 h
[7] = tested on: KHYG-1 (IL-2 2.5 ng/mL); test: as above; conditions: 72 h
[8] = tested on: normal primary NK cells, pool 3 (3 donors) (IL-2 2.5 ng/mL); test: as above; conditions: 72 h
[9] = tested on: SNK-6 (IL-2 2.5 ng/mL); test: as above; conditions: 72 h
[10] = tested on: YT (IL-2 2.5 ng/mL); test: as above; conditions: 72 h
[11] = tested on: DERL-7 (IL-2 2.5 ng/mL); test: as above; conditions: 72 h
[12] = tested on: normal primary NK cells, pool 1 (3 donors), resting (IL-2 0 ng/mL); test: as above; conditions: 72 h
[13] = tested on: NK-92 (IL-2 2.5 ng/mL); test: as above; conditions: 72 h
[14] = tested on: NKL (IL-2 2.5 ng/mL); test: as above; conditions: 72 h
[15] = tested on: normal primary NK cells, pool 1 (3 donors) (IL-2 2.5 ng/mL); test: drug sensitivity score (DSS) (DSS units); higher = more sensitive; extreme values may be limits of the assay; conditions: 72 h
[16] = tested on: KAI3 (IL-2 2.5 ng/mL); test: as above; conditions: 72 h
[17] = tested on: normal primary NK cells, pool 2 (3 donors) (IL-2 2.5 ng/mL); test: as above; conditions: 72 h
[18] = tested on: NK-YS (IL-2 2.5 ng/mL); test: as above; conditions: 72 h
[19] = tested on: IMC-1 (IL-2 20 ng/mL); test: as above; conditions: 72 h
[20] = tested on: KHYG-1 (IL-2 2.5 ng/mL); test: as above; conditions: 72 h
[21] = tested on: normal primary NK cells, pool 3 (3 donors) (IL-2 2.5 ng/mL); test: as above; conditions: 72 h
[22] = tested on: SNK-6 (IL-2 2.5 ng/mL); test: as above; conditions: 72 h
[23] = tested on: YT (IL-2 2.5 ng/mL); test: as above; conditions: 72 h
[24] = tested on: DERL-7 (IL-2 2.5 ng/mL); test: as above; conditions: 72 h
[25] = tested on: normal primary NK cells, pool 1 (3 donors), resting (IL-2 0 ng/mL); test: as above; conditions: 72 h
[26] = tested on: NK-92 (IL-2 2.5 ng/mL); test: as above; conditions: 72 h
[27] = tested on: NKL (IL-2 2.5 ng/mL); test: as above; conditions: 72 h
[28] = tested on: normal NK cells expanded with K562-aAPC; test: as above; conditions: 72 h; IL-2 2.5 ng/mL
Method: as §1

CC(C)C[C@H](NC(=O)[C@@H](COC(C)(C)C)NC(=O)[C@H](Cc1ccc(O)cc1)NC(=O)[C@H](CO)NC(=O)[C@H](Cc1c[nH]c2ccccc12)NC(=O)[C@H](Cc1cnc[nH]1)NC(=O)[C@@H]1CCC(=O)N1)C(=O)N[C@@H](CCCNC(=N)N)C(=O)N1CCC[C@H]1C(=O)NNC(N)=O [Goserelin] (max concentration tested 10000 nM)
percent inhibition of viability [%]
Conditions	1 nM	10 nM	100 nM	1000 nM	10000 nM
[1]	-6.58	-6.46	-10.9	-5.02	13.2
[2]	2.55	-1.49	10.9	10.5	-0.05
[3]	-6.09	-9.54	-7.05	1.42	21.1
[4]	-6.03	-6.27	-2.35	5.13	11.8
[5]	-9.13	-9.66	-6.69	-6.01	6.61
[6]	-8.43	-3.76	-4.51	-0.15	11.2
[7]	-5.2	-3.78	-7.91	-4.87	6.57
[8]	-3.77	-5.54	7.78	0.8	-2.53
[9]	-19.4	-9.63	-24.4	-13.4	-9.52
[10]	-6.11	-8.09	-5.17	-3.36	20.9
[11]	0.68	-4.54	-4.5	-0.44	-4.02
[12]	-2.06	1.54	20.9	19.8	15.1
[13]	-9.16	-10.9	-7.22	-12.8	20.7
[14]	-13.2	-11.5	-12.2	0.66	14.8

Conditions	drug sensitivity score
[15]	0
[16]	0.84
[17]	0.22
[18]	0
[19]	0.01
[20]	0
[21]	0
[22]	0
[23]	0.49
[24]	0
[25]	5.4
[26]	0.34
[27]	0.26
[28]	0.04

C[C@]12CC[C@H](O)CC1=CC[C@@H]1[C@@H]2CC[C@]2(C)C(c3cccnc3)=CC[C@@H]12 [Abiraterone] (max concentration tested 5000 nM)
percent inhibition of viability [%]
Conditions	0.5 nM	5 nM	50 nM	500 nM	5000 nM
[1]	-3.92	-2.08	-4.35	-1.44	15.5
[2]	-9.05	-7.76	5.1	-0.54	-7.49
[3]	4.32	6.7	11.6	12.4	18.3
[4]	-1.86	7.99	1.79	9.51	6.09
[5]	4.24	-1.71	1.76	0.55	14
[6]	-0.05	0.08	1.73	4.6	25.9
[7]	2.05	18.6	-0.59	2.88	6.94
[8]	5.18	4.84	1.7	15.9	-1.9
[9]	-4.3	-11.1	-26.2	-25.2	-1.46
[10]	-0.02	9.21	-0.43	11.5	4.01
[11]	-1.84	6.7	-3.24	8.85	-0.3
[12]	2.81	1.54	10.1	10.2	16.1
[13]	3.02	0.66	4.19	19.8	18.9
[14]	8.55	9.91	1.09	12.8	9.69

Conditions	drug sensitivity score
[15]	0
[16]	1.81
[17]	0
[18]	0.2
[19]	1.72
[20]	0
[21]	0
[22]	0.89
[23]	0
[24]	0
[25]	1
[26]	3.2
[27]	0
[28]	0.21
